The values below come from patent US6355638B1, “Pyrazolo[1,5-d][1,2,4] triazines for enhancing cognition” (Merck Sharp & Dohme Ltd., priority 1999, dated 2002).

As a reminder, the melting point is the temperature of the solid-liquid transition.

Structures are written as SMILES.

Conditions in the first data set: not given
The molecule `Cc1cc(-c2nncc3c(C(C)(C)C)c(OCc4ncn(C)n4)nn23)no1` displayed a melting point of 161 to 164 °C. On the same count and under the same terms, in the case of `Cc1cc(-c2nncc3c(C(C)(C)C)c(OCc4ccccn4)nn23)no1` it was 175 to 178 °C; in that of `Cc1cc(-c2nncc3c(-c4ccccc4)c(OCc4ncn(C)n4)nn23)no1`, 194 to 196 °C; in that of `Cc1cc(-c2nncc3c(-c4ccco4)c(OCc4ncnn4C)nn23)no1`, 226 to 228 °C. The molecule `Cc1cc(-c2nncc3c(Br)c(OCc4ncnn4C)nn23)no1` returned a melting point of 239 to 241 °C.

For `Cc1cc(-c2nncc3c(C(C)(C)C)c(OCc4ccncc4)nn23)no1`, the melting point lay in the range of 119 to 121 °C. As for `Cc1cc(-c2nncc3c(C(C)(C)C)c(OCc4cccnc4)nn23)no1`, the melting point was 139 to 141 °C.

The conditions of another data set: background statement; cited from earlier work.
In the case of `COC(=O)c1cc2c(cn1)[nH]c1ccccc12` [β-CCM], the proconvulsant activity entry is “proconvulsant”.

For a further data set the following is noted: reported in Psychobiology, 21:101-108; cited from earlier work.
Regarding `COC(=O)c1cc2c(cn1)[nH]c1ccccc12` [β-CCM], the “spatial learning in the Morris watermaze” value was “enhanced spatial learning”.
